Measured values from ChEMBL document CHEMBL4507276 (2021).

Columns and labels:
Details in all cases: Compound concentration 1000.0 nM
[1] = target: AP2-associated protein kinase 1 (Homo sapiens) (UniProt Q2M2I8)
[2] = target: Bone morphogenetic protein receptor type-1B (Homo sapiens) (UniProt O00238)
[3] = target: Cyclin-dependent kinase 4 (Homo sapiens) (UniProt P11802)
[4] = target: Casein kinase II subunit alpha' (Homo sapiens) (UniProt P19784)
[5] = target: T1, Ephrin type-A receptor 8 (Homo sapiens) (UniProt P29322)
T1 sequence (whole entry): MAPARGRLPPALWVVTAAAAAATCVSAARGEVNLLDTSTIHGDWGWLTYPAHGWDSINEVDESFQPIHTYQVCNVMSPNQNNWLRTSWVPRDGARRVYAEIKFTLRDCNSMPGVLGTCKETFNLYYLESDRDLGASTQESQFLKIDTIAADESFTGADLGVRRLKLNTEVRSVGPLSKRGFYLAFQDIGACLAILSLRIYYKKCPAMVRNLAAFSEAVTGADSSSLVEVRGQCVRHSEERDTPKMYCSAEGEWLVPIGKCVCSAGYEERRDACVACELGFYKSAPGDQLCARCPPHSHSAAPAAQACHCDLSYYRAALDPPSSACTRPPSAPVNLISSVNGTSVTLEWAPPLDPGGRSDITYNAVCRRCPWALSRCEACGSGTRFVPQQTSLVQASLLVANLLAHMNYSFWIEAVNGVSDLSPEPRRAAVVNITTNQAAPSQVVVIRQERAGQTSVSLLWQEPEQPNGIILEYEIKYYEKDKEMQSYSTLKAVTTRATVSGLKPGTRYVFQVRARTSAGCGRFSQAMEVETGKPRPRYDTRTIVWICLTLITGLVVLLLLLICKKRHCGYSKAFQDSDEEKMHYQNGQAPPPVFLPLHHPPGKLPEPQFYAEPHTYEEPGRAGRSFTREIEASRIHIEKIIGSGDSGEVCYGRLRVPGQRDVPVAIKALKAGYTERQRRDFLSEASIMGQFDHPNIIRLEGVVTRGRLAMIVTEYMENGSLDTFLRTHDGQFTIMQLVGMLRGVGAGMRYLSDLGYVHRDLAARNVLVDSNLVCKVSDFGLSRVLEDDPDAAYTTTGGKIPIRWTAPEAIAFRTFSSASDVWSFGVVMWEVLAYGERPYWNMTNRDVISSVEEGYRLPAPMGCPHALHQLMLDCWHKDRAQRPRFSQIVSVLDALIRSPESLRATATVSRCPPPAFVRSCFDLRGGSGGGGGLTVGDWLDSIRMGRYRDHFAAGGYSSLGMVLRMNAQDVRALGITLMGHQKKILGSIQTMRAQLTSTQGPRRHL

[6] = target: Ephrin type-B receptor 6 (Homo sapiens) (UniProt O15197)
Chain of Ephrin type-B receptor 6 (Homo sapiens) (O15197 whole entry): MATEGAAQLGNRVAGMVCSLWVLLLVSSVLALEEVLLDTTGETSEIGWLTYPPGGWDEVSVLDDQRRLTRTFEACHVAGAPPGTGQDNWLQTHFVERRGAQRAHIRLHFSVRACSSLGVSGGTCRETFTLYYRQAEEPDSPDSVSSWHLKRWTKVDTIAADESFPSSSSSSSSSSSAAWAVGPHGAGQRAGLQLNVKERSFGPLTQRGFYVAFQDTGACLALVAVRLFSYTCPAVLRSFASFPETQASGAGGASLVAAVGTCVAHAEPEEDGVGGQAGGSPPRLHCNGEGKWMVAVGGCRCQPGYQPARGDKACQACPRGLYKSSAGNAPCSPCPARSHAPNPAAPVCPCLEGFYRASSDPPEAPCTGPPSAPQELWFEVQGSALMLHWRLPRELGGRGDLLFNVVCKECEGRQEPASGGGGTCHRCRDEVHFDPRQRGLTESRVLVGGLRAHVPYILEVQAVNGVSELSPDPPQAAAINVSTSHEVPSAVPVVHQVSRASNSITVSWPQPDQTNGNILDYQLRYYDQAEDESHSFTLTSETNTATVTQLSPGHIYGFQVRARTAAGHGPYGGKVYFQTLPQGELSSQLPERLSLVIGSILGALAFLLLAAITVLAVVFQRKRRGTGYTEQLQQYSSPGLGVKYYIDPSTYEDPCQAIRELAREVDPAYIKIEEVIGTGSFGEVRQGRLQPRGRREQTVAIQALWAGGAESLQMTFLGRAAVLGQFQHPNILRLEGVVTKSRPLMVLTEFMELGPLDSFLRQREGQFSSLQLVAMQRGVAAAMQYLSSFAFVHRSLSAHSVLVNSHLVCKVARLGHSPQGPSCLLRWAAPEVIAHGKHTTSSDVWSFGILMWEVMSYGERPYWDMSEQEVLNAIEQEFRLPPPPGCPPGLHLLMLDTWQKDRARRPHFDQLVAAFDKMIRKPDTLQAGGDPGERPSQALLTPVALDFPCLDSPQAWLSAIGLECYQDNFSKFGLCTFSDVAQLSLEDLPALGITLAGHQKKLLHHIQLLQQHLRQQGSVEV

[7] = test system: Receptor-type tyrosine-protein kinase FLT3 (Homo sapiens), P36888 [UNDEFINED MUTATION]
[8] = target: Rhodopsin kinase GRK1 (Homo sapiens) (UniProt Q15835)
Chain of Rhodopsin kinase GRK1 (Homo sapiens) (Q15835 whole entry): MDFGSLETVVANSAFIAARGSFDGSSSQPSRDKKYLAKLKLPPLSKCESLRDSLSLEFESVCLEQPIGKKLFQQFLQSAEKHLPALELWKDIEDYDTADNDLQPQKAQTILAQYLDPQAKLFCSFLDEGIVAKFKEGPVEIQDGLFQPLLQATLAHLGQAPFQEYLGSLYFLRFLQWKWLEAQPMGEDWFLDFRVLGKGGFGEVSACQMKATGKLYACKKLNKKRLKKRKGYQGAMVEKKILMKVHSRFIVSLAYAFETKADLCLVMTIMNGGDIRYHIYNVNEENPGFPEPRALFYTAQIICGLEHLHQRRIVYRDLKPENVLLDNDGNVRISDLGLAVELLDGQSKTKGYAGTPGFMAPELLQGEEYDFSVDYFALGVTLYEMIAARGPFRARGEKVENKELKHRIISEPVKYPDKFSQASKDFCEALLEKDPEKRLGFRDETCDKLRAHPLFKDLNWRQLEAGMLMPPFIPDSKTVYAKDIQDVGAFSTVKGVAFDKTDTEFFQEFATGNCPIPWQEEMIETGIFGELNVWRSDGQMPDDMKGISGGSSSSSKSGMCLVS

[9] = target: Serine/threonine-protein kinase MRCK alpha (Homo sapiens) (UniProt Q5VT25)
[10] = target: T2, Serine/threonine-protein kinase 4 (Homo sapiens) (UniProt Q13043)
T2 sequence (whole entry): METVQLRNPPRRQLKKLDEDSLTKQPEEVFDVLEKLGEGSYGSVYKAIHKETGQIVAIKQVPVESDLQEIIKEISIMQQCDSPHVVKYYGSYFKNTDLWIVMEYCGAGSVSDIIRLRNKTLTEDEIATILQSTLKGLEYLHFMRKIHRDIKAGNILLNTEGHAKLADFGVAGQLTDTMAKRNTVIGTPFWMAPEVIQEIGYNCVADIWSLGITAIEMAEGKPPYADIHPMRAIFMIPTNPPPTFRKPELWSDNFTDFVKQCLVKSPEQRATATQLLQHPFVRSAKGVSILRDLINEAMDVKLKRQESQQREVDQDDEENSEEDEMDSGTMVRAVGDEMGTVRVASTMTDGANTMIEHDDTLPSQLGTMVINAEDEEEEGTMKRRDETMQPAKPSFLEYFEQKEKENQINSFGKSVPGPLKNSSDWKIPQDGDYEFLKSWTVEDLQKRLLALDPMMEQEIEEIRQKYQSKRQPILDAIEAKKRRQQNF

[11] = target: Myosin light chain kinase family member 4 (Homo sapiens) (UniProt Q86YV6)
Chain of Myosin light chain kinase family member 4 (Homo sapiens) (Q86YV6 whole entry): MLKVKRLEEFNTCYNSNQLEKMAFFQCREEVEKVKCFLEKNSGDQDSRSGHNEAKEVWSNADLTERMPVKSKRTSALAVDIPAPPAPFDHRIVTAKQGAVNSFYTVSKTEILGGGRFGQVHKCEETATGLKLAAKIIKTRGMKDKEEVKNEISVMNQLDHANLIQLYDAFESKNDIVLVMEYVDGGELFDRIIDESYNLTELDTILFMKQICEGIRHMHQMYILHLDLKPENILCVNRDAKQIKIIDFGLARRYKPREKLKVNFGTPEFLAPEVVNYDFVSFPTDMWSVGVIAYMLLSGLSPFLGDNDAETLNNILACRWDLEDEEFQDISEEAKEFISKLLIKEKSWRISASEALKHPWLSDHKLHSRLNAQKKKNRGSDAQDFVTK

[12] = target: Serine/threonine-protein kinase PAK 3 (Homo sapiens) (UniProt O75914)
Chain of Serine/threonine-protein kinase PAK 3 (Homo sapiens) (O75914 whole entry, looked up): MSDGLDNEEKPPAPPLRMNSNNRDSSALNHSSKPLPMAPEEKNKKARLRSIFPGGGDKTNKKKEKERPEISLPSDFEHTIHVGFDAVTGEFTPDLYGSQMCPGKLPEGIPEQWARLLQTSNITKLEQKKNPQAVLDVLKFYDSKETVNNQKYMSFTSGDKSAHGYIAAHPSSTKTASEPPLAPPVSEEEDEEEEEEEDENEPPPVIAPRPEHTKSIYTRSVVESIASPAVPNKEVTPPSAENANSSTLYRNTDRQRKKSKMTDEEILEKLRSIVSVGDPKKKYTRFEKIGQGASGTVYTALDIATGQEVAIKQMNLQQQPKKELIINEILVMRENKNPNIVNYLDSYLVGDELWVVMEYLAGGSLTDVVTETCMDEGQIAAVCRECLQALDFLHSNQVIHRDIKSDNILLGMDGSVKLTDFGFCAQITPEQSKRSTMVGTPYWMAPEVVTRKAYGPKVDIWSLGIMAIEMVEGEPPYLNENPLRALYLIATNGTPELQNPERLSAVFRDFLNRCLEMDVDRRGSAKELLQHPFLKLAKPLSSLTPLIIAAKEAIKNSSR

[13] = target: Serine/threonine-protein kinase pim-2 (Homo sapiens) (UniProt Q9P1W9)
Chain of Serine/threonine-protein kinase pim-2 (Homo sapiens) (Q9P1W9 whole entry, looked up): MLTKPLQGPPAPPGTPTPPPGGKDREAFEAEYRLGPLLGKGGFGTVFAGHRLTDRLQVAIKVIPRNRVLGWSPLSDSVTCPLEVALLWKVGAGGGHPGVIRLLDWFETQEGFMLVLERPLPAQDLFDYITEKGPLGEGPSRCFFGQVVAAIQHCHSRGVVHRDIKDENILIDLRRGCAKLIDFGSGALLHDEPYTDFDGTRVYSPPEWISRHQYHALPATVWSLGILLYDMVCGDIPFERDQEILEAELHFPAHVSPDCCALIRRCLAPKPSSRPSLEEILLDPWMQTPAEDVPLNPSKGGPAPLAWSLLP

[14] = target: Serine/threonine-protein kinase PLK2 (Homo sapiens) (UniProt Q9NYY3)
[15] = target: Serine/threonine-protein kinase 35 (Homo sapiens) (UniProt Q8TDR2)

Measured: residual activity

Chain of AP2-associated protein kinase 1 (Homo sapiens) (Q2M2I8 whole entry, looked up): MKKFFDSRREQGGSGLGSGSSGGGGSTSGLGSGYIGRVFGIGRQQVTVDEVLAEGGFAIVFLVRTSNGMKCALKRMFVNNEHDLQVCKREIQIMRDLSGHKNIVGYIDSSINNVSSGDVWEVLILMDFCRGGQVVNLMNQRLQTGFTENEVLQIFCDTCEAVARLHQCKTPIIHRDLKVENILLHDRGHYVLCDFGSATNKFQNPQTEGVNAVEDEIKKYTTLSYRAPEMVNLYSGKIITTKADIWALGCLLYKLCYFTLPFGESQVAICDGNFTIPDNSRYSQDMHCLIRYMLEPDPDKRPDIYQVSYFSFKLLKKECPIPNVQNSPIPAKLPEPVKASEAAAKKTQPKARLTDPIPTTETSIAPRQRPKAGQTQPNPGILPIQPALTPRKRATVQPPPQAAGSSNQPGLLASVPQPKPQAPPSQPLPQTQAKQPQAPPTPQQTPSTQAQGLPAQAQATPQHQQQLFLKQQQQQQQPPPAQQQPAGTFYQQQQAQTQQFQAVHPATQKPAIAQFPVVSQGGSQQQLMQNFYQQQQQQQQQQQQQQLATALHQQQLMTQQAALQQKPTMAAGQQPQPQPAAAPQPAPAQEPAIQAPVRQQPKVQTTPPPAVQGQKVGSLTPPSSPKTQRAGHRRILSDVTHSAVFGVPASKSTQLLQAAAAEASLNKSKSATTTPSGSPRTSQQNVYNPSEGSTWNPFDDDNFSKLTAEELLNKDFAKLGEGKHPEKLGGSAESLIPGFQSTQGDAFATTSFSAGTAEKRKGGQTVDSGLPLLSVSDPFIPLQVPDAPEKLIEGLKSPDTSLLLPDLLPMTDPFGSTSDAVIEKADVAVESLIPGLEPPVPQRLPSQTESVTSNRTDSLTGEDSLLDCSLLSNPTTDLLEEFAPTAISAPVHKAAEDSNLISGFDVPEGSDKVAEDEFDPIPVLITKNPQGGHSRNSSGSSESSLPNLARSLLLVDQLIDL
Chain of Casein kinase II subunit alpha' (Homo sapiens) (P19784 whole entry, looked up): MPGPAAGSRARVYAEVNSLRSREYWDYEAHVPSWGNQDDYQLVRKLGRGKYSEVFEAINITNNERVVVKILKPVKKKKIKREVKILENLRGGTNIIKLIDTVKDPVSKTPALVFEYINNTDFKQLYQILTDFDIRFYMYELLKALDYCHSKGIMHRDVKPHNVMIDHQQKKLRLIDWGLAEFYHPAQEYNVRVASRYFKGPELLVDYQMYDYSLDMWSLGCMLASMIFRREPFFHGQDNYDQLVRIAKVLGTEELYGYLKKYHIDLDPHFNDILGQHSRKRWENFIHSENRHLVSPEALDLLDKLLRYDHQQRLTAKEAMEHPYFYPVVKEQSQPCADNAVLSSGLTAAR
Chain of Bone morphogenetic protein receptor type-1B (Homo sapiens) (O00238 whole entry): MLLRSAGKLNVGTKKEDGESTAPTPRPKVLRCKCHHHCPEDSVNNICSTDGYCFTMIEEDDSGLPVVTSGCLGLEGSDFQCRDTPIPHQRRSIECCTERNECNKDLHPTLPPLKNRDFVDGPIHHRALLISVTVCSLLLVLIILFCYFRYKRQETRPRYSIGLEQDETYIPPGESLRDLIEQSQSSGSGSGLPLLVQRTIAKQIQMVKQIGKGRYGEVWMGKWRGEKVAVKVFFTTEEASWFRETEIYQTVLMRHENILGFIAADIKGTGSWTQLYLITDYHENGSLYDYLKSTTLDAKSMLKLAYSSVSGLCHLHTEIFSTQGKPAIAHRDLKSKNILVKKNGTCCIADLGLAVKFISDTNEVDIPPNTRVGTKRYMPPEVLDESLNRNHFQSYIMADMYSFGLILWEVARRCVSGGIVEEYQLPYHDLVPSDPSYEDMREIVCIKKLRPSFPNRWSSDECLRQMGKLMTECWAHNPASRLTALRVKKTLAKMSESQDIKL
Chain of Cyclin-dependent kinase 4 (Homo sapiens) (P11802 whole entry): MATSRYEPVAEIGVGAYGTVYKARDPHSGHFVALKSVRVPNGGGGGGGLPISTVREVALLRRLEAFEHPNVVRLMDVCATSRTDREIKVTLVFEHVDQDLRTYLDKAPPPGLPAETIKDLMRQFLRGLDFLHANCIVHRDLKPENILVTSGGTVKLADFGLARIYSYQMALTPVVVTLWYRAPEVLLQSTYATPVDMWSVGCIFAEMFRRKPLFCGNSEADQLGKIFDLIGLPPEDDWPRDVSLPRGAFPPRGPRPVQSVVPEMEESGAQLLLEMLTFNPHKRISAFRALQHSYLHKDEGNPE

CN(C)C(=O)Cn1cc(-c2nc(C3(c4ccc(-c5cnc(N)nc5)cc4)CC3)no2)cn1 [BI 0153]
inactive: [1] 100% | [2] 99% | [3] 100% | [4] 100% | [5] 87% | [6] 93% | [7] 89% | [8] 74% | [9] 100% | [10] 90% | [11] 100% | [12] 82% | [13] 100% | [14] 93% | [15] 94%

CN(C)C(=O)Cn1cc(-c2nc([C@@](C)(c3ccc(-c4cnc(N)nc4)cc3)C3CC3)no2)cn1 [BI 665915]
inactive: [1] 100% | [2] 76% | [3] 94% | [4] 90% | [5] 100% | [6] 76% | [7] 62% | [8] 100% | [9] 100% | [10] 90% | [11] 100% | [12] 87% | [13] 100% | [14] 56% | [15] 88%
